How the values were obtained:
[1] = target: T1, TYK2 JH2 (Homo sapiens, UniProt P29597); assay: TYK2 JH2 binding assay (KINOMEscan KdELECT competitive binding); conditions: TYK2 JH2 domain, KINOMEscan KdELECT (Assay A); read-out: Biochemical TYK2_DiscoverX_JH2_BND_Kd
T1 construct: purchased DiscoverX (KINOMEscan KdELECT service); host or cells: E. coli BL21-derived (T7 phage display) or HEK-293
Procedure, shortened: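 Kd values come from qPCR measurement of kinase retained on an immobilized-ligand resin after 1 h room-temperature competition with compound in an 11-point, 3-fold series.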

[2] = test system: JAK1/TYK2 pSTAT5 (Tyr694/699) in THP-1 cell line; assay: IFNa-stimulated JAK1/TYK2 pSTAT5 (Tyr694/699) inhibition cellular assay, AlphaLISA; type: cell-based; conditions: Homo sapiens; THP-1 cells, IFNa-stimulated, AlphaLISA (Assay B); read-out: Cellular_THP1_IFNa-pSTATS_TYK2
Procedure, shortened: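 pSTAT5 (Tyr694/699) in lysates quantified by AlphaLISA (615 nm) after 30 min IFNa stimulation (100 ng/mL stock) of THP-1 cells. The cells, 2e4 per well in HBSS, had first been exposed 1 h at 37° C. to eight 6-fold compound dilutions, 10000 down to 0.04 nM final. IC50 fitted by 4PL regression, bottom 0, Hill slope −1.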

T1 sequence (P29597 589-875 limits assumed): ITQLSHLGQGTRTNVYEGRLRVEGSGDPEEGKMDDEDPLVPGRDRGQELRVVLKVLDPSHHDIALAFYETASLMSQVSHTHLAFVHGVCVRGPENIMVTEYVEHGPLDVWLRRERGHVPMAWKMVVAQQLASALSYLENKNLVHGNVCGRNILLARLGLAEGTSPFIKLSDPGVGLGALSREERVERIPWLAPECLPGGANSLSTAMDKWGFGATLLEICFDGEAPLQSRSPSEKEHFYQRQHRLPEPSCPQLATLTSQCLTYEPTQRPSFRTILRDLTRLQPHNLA

SMILES	Kd [1] [nM]	IC50 [2] [nM]
[2H]C([2H])([2H])n1c(C#Cc2cnc(NC)c3cnc(NC(=O)C4CC4)cc23)cnc1C [Example 902, N-(5-((2-methyl-1-(methyl-d3)-1H-imidazol-5-yl)ethynyl)-8-(methylamino)-2,7-naphthyridin-3-yl)cyclopropanecarboxamide]	≤ 100	≤ 500
[2H]C([2H])([2H])Nc1ncc(C#Cc2cn(C)c(C)n2)c2cc(NC(=O)[C@H]3C[C@H]3C)ncc12 [Example 903, (1S,2R)-N-(5-((1,2-dimethyl-1H-imidazol-4-yl)ethynyl)-8-((methyl-d3)amino)-2,7-naphthyridin-3-yl)-2-methylcyclopropane-1-carboxamide]	≤ 100	≤ 500
CNc1ncc(C#Cc2ccc(OC)c(C)n2)c2cc(NC(=O)C3CC3)ncc12 [Example 904, N-(5-((5-methoxy-6-methylpyridin-2-yl)ethynyl)-8-(methylamino)-2,7-naphthyridin-3-yl)cyclopropanecarboxamide]	≤ 100	≤ 500
CNc1ncc(-c2nc3ccc(N4CCOCC4)cc3o2)c2cc(NC(=O)C3CC3)nnc12 [Example 913, N-(8-(methylamino)-5-(6-morpholinobenzo[d]oxazol-2-yl)pyrido[3,4-c]pyridazin-3-yl)cyclopropanecarboxamide]	≤ 100	≤ 500
CNc1ncc(-c2nc3cc(N4CCOCC4)ccc3o2)c2cc(NC(=O)C3CC3)nnc12 [Example 914, N-(8-(methylamino)-5-(5-morpholinobenzo[d]oxazol-2-yl)pyrido[3,4-c]pyridazin-3-yl)cyclopropancarboxamide]	≤ 100	≤ 500
CNc1ncc(C#Cc2ccc(OC3CN(C(C)=O)C3)cc2)c2cc(NC(=O)C3(F)CC3)nnc12 [Example 915, N-(5-((4-((1-acetylazetidin-3-yl)oxy)phenyl)ethynyl)-8-(methylamino)pyrido[3,4-c]pyridazin-3-yl)-1-fluorocyclopropane-1-carboxamide]	≤ 100	> 500
CNc1ncc(-c2nc3cc(N4CCC(F)CC4)ccc3o2)c2cc(NC(=O)C3CC3)ncc12 [Example 916, N-[5-[5-(4-fluoro-1-piperidyl)-1,3-benzoxazol-2-yl]-8-(methylamino)-2,7-naphthyridin-3-yl]cyclopropanecarboxamide]	≤ 100	≤ 500
CNc1ncc(-c2nc3cc(N4CCCC4)ccc3o2)c2cc(NC(=O)C3CC3)ncc12 [Example 917, N-[8-(methylamino)-5-(5-pyrrolidin-1-yl-1,3-benzoxazol-2-yl)-2,7-naphthyridin-3-yl]cyclopropanecarboxamide]	≤ 100	≤ 500
CNc1ncc(-c2nc3cc(N4CCOC(COC)C4)ccc3o2)c2cc(NC(=O)C3CC3)ncc12 (centres unmarked) [Example 918, N-(5-(5-(2-(methoxymethyl)morpholino)benzo[d]oxazol-2-yl)-8-(methylamino)-2,7-naphthyridin-3-yl)cyclopropanecarboxamide]	≤ 100	≤ 500
CNc1ncc(-c2nc3cc(N4CCOC(C(F)(F)F)C4)ccc3o2)c2cc(NC(=O)C3CC3)ncc12 (centres unmarked) [Example 921, N-(8-(methylamino)-5-(5-(2-(trifluoromethyl)morpholino)benzo[d]oxazol-2-yl)-2,7-naphthyridin-3-yl)cyclopropanecarboxamide]	≤ 100	≤ 500
CNc1ncc(-c2nc3cc(N4CCOC(C(C)(C)O)C4)ccc3o2)c2cc(NC(=O)C3CC3)ncc12 (centres unmarked) [Example 924, N-(5-(5-(2-(2-hydroxypropan-2-yl)morpholino)benzo[d]oxazol-2-yl)-8-(methylamino)-2,7-naphthyridin-3-yl)cyclopropanecarboxamide]	≤ 100	≤ 500
CNc1ncc(-c2nc3cc(N4CC(C)(O)C4)ccc3o2)c2cc(NC(=O)C3CC3)ncc12 [Example 927, N-(5-(5-(3-hydroxy-3-methylazetidin-1-yl)benzo[d]oxazol-2-yl)-8-(methylamino)-2,7-naphthyridin-3-yl)cyclopropanecarboxamide]	≤ 100	≤ 500
CNc1ncc(-c2nc3cnc(C)cc3o2)c2cc(NC(=O)C3CC3)ncc12 [Example 928, N-(8-(methylamino)-5-(6-methyloxazolo[4,5-c]pyridin-2-yl)-2,7-naphthyridin-3-yl)cyclopropanecarboxamide]	≤ 100	≤ 500

Next, values leading:

Kd [1] [nM]	IC50 [2] [nM]	SMILES
≤ 100	≤ 500	CNc1ncc(-c2nc3cc(N4CCOCC4=O)ccc3o2)c2cc(NC(=O)C3CC3)ncc12 [Example 929, N-(8-(methylamino)-5-(5-(3-oxomorpholino)benzo[d]oxazol-2-yl)-2,7-naphthyridin-3-yl)cyclopropanecarboxamide]
≤ 100	≤ 500	CNc1ncc(-c2nc3cc(OC)ccc3s2)c2cc(NC(=O)C3CC3)ncc12 [Example 930, N-(5-(5-methoxybenzo[d]thiazol-2-yl)-8-(methylamino)-2,7-naphthyridin-3-yl)cyclopropanecarboxamide]
≤ 100	≤ 500	C=C(C)c1ccc2oc(-c3cnc(NC)c4cnc(NC(=O)C5CC5)cc34)nc2c1 [Example 931, N-(8-(methylamino)-5-(5-(prop-1-en-2-yl)benzo[d]oxazol-2-yl)-2,7-naphthyridin-3-yl)cyclopropanecarboxamide]
≤ 100	≤ 500	CNc1ncc(-c2nc3cc(N4CC(C)(F)C4)ccc3o2)c2cc(NC(=O)C3CC3)ncc12 [Example 932, N-(5-(5-(3-fluoro-3-methylazetidin-1-yl)benzo[d]oxazol-2-yl)-8-(methylamino)-2,7-naphthyridin-3-yl)cyclopropanecarboxamide]
≤ 100	≤ 500	CNc1ncc(-c2nc3ccc(OC)cc3s2)c2cc(NC(=O)C3CC3)ncc12 [Example 933, N-(5-(6-methoxybenzo[d]thiazol-2-yl)-8-(methylamino)-2,7-naphthyridin-3-yl)cyclopropanecarboxamide]
≤ 100	≤ 500	CNc1ncc(-c2nc3cc(N4CC5(CCOCC5)C4)ccc3o2)c2cc(NC(=O)C3CC3)ncc12 [Example 934, N-(5-(5-(7-oxa-2-azaspiro[3.5]nonan-2-yl)benzo[d]oxazol-2-yl)-8-(methylamino)-2,7-napththyridin-3-yl)cyclopropanecarboxamide]
≤ 100	≤ 500	CNc1ncc(-c2nc3cc(OC)cc(F)c3o2)c2cc(NC(=O)C3CC3)ncc12 [Example 937, N-(5-(7-fluoro-5-methoxybenzo[d]oxazol-2-yl)-8-(methylamino)-2,7-naphthyridin-3-yl)cyclopropanecarboxamide]
≤ 100	≤ 500	CNc1ncc(-c2nc3cc(N4CCCC(F)(F)C4)ccc3o2)c2cc(NC(=O)C3CC3)ncc12 [Example 938, N-[5-[5-(3,3-difluoro-1-piperidyl)-1,3-benzoxazol-2-yl]-8-(methylamino)-2,7-naphthyridin-3-yl]cyclopropanecarboxamide]
≤ 100	≤ 500	CNc1ncc(-c2nc3cc(-c4ccn(C)n4)ccc3o2)c2cc(NC(=O)C3CC3)ncc12 [Example 939, N-(5-(5-(1-methyl-1H-pyrazol-3-yl)benzo[d]oxazol-2-yl)-8-(methylamino)-2,7-naphthyridin-3-yl)cyclopropanecarboxamide]
≤ 100	≤ 500	CNc1ncc(-c2nc3cc(-c4cnn(C)n4)ccc3o2)c2cc(NC(=O)C3CC3)ncc12 [Example 940, N-(5-(5-(2-methyl-2H-1,2,3-triazol-4-yl)benzo[d]oxazol-2-yl)-8-(methylamino)-2,7-naphthyridin-3-yl)cyclopropanecarboxamide]
≤ 100	≤ 500	CNc1ncc(-c2nc3cc(OCC(C)(C)F)ccc3o2)c2cc(NC(=O)C3CC3)ncc12 [Example 941, N-[5-[5-(2-fluoro-2-methyl-propoxy)-1,3-benzoxazol-2-yl]-8-(methylamino)-2,7-naphthyridin-3-yl]cyclopropanecarboxamide]
≤ 100	≤ 500	CNc1ncc(-c2nc3cc(N4CCC(F)(F)C4)ccc3o2)c2cc(NC(=O)C3CC3)ncc12 [Example 942, N-(5-(5-(3,3-difluoropyrrolidin-1-yl)benzo[d]oxazol-2-yl)-8-(methylamino)-2,7-naphthyridin-3-yl)cyclopropanecarboxamide]
≤ 100	≤ 500	CNc1ncc(-c2nc3cc(N4CCC(F)C4)ccc3o2)c2cc(NC(=O)C3CC3)ncc12 (centres unmarked) [Example 943, N-(5-(5-(3-fluoropyrrolidin-1-yl)benzo[d]oxazol-2-yl)-8-(methylamino)-2,7-naphthyridin-3-yl)cyclopropanecarboxamide]
≤ 100	≤ 500	CNc1ncc(-c2nc3cc([C@]45C[C@H](CO4)C5)ccc3o2)c2cc(NC(=O)C3CC3)ncc12 [Example 946, N-(5-(5-((1s,4s)-2-oxabicyclo[2.1.1]hexan-1-yl)benzo[d]oxazol-2-yl)-8-(methylamino)-2,7-naphthyridin-3-yl)cyclopropanecarboxamide]
≤ 100	≤ 500	CNc1ncc(-c2nc3cc(C4(C)CCCO4)ccc3o2)c2cc(NC(=O)C3CC3)ncc12 (centres unmarked) [Example 947, N-(8-(methylamino)-5-(5-(2-methyltetrahydrofuran-2-yl)benzo[d]oxazol-2-yl)-2,7-naphthyridin-3-yl)cyclopropanecarboxamide]
